Assay results taken from EPA's ToxRefDB 2.

Tests used:
primate [1] = conditions: Sub-acute repeat dose toxicity; Oral; Gavage/Intubation; dose end: 30 day; group: systemic; systemic / clinical chemistry / protein / protein + systemic / hematology / erythrocyte (rbc) count differential / erythrocyte (rbc) + …
primate [2] = conditions: Sub-acute repeat dose toxicity; Oral; Gavage/Intubation; dose end: 21 day; group: systemic; systemic / in life observation / clinical signs / inappetence + systemic / in life observation / clinical signs / abnormal feces + systemic…
rat [3] = conditions: Sub-acute repeat dose toxicity, sprague dawley, Oral, Gavage/Intubation, dose end: 14 day, group: systemic
primate [4] = conditions: Sub-acute repeat dose toxicity; Oral; Gavage/Intubation; dose end: 19 day; group: systemic; systemic / clinical chemistry / creatinine / creatinine + systemic / clinical chemistry / urea nitrogen / urea nitrogen + systemic / …
rat [5] = conditions: Sub-acute repeat dose toxicity, sprague dawley, Oral, Gavage/Intubation, dose end: 28 day, group: systemic
dog [6] = conditions: Sub-acute repeat dose toxicity, beagle, Injection, Intravenous, dose end: 5 day, group: systemic
primate [7] = conditions: Sub-acute repeat dose toxicity; Injection; Intravenous; dose end: 5 day; group: systemic; systemic / in life observation / clinical signs / [other] + systemic / in life observation / clinical signs / compulsive biting or licking…
rat [8] = conditions: Sub-acute repeat dose toxicity; sprague dawley; Injection; Intravenous; dose end: 4 day; group: systemic; systemic / in life observation / clinical signs / drooping eyelids (ptosis) + systemic / in life observation / clinical signs / external …
rat [9] = conditions: Sub-acute repeat dose toxicity; sprague dawley; Injection; Intravenous; dose end: 5 day; group: systemic; systemic / in life observation / clinical signs / drooping eyelids (ptosis) + systemic / in life observation / clinical signs / reduced …
dog [10] = conditions: Chronic toxicity, beagle, Oral, Gavage/Intubation, dose end: 12 month, group: systemic
rat [11] = conditions: Fertility (Segment I), sprague dawley, Oral, Gavage/Intubation, dose end: 14 GD
rabbit = conditions: Prenatal developmental toxicity study, other, Oral, Gavage/Intubation, dose end: 18 GD
dog [12] = conditions: Chronic toxicity, beagle, Oral, Gavage/Intubation, dose end: 6 month, group: systemic
rat [13] = conditions: Fertility (Segment I), sprague dawley, Oral, Gavage/Intubation, dose end: 7 GD
rat [14] = conditions: Fertility (Segment I), sprague dawley, Oral, Gavage/Intubation, dose end: 7 GD; remark: listed apart in the source
rat [15] = conditions: Prenatal developmental toxicity study, Sprague Dawley OFA, Oral, Gavage/Intubation, dose end: 17 GD, group: maternal
mouse = conditions: Subchronic oral toxicity in rodents, cd1, Gavage/Intubation, dose end: 13 weeks, group: systemic, systemic / in life observation / body weight / body weight + systemic / in life observation / body weight / body weight gain + systemic / in…
dog [16] = conditions: Sub-acute repeat dose toxicity, beagle, Oral, Gavage/Intubation, dose end: 4 week, group: systemic
rat [17] = conditions: Sub-acute repeat dose toxicity, other, Oral, Gavage/Intubation, dose end: 29 day, group: systemic
rat [18] = conditions: Chronic toxicity; sprague dawley; Oral; Gavage/Intubation; dose end: 6 month; group: systemic; systemic / clinical chemistry / estradiol / estradiol + systemic / clinical chemistry / prolactin / prolactin + systemic / clinical …
rat [19] = conditions: Sub-acute repeat dose toxicity, sprague dawley, Oral, Gavage/Intubation, dose end: 1 month, group: systemic
rat [20] = conditions: Prenatal developmental toxicity study, sprague dawley, Oral, Gavage/Intubation, dose end: 17 GD, group: maternal
[21] = systemic / clinical chemistry / calcium / calcium + systemic / clinical chemistry / protein / protein + systemic / hematology / erythrocyte…
[22] = systemic / hematology / erythrocyte (rbc) count differential / erythrocyte (rbc) + systemic / hematology / hematocrit (hct) / hematocrit (…
[23] = systemic / pathology gross / full gross necropsy / ulcer
[24] = systemic / pathology gross / full gross necropsy / ulcer + systemic / clinical chemistry / protein / protein + systemic / hematology / …
[25] = systemic / clinical chemistry / bile acids / bile acids
[26] = systemic / clinical chemistry / bile acids / bile acids + systemic / pathology microscopic / gallbladder / hyperplasia + systemic / …
[27] = systemic / clinical chemistry / bilirubin / total bilirubin + systemic / hematology / platelet / platelet + systemic / in life observation…
[28] = systemic / clinical chemistry / bilirubin / total bilirubin + systemic / in life observation / clinical signs / [other] + systemic / in life…
[29] = group: maternal, reproductive / reproductive performance / fertility / fertility
[30] = group: parental, systemic / in life observation / body weight / body weight gain + systemic / in life observation / clinical signs / [other] + systemic / in …
[31] = group: developmental, systemic / in life observation / body weight / fetal weight
[32] = group: maternal, systemic / in life observation / body weight / body weight gain + systemic / in life observation / food consumption / food consumption + …
[33] = systemic / clinical chemistry / albumin / albumin + systemic / clinical chemistry / albumin-globulin ratio / albumin-globulin ratio + …
[34] = systemic / in life observation / clinical signs / [other] + systemic / in life observation / clinical signs / defecation (diarrhea) + …
[35] = group: maternal, reproductive / reproductive performance / estrous cycle / abnormal + reproductive / reproductive performance / estrous cycle / length
[36] = group: maternal, reproductive / reproductive performance / estrous cycle / abnormal + reproductive / reproductive performance / estrous cycle / length + …
[37] = group: parental, systemic / in life observation / body weight / body weight gain + systemic / in life observation / clinical signs / drooping eyelids (ptosis…
[38] = group: maternal, reproductive / reproductive performance / fertility / fertility + reproductive / reproductive performance / implantations / implantations + …
[39] = group: parental, systemic / in life observation / clinical signs / drooping eyelids (ptosis) + systemic / pathology gross / vagina / dilatation
[40] = systemic / in life observation / body weight / body weight + systemic / in life observation / clinical signs / drooping eyelids (ptosis)
[41] = systemic / in life observation / clinical signs / drooping eyelids (ptosis)
[42] = systemic / in life observation / clinical signs / pulse/pressure + systemic / urinalysis / protein / protein
[43] = systemic / in life observation / clinical signs / pulse/pressure + systemic / urinalysis / protein / protein + systemic / in life …
[44] = systemic / hematology / platelet / platelet + systemic / in life observation / body weight / body weight + systemic / in life observation / …
[45] = systemic / in life observation / clinical signs / drooping eyelids (ptosis) + systemic / in life observation / clinical signs / lacrimation …
[46] = systemic / clinical chemistry / triglycerides / triglycerides + systemic / in life observation / body weight / body weight gain + systemic…
[47] = systemic / pathology gross / vagina / dilatation + systemic / pathology gross / skin / [other]
[48] = systemic / in life observation / body weight / body weight gain + systemic / in life observation / clinical signs / drooping eyelids (ptosis…

NC(=O)n1c(O)c(C(=O)c2cc(Cl)cs2)c2cc(Cl)ccc21
LEL (primate [1]): 2 mg/kg/day
LOAEL (primate [1]): > 6 mg/kg/day
NEL (primate [1]): < 2 mg/kg/day
NOAEL (primate [1]): ≥ 6 mg/kg/day
LEL (primate [2]): 3 mg/kg/day
LOAEL (primate [2]): > 3 mg/kg/day
NEL (primate [2]): < 3 mg/kg/day
NOAEL (primate [2]): ≥ 3 mg/kg/day
LOAEL (rat [3]; [21]): > 100 mg/kg/day
NOAEL (rat [3]; [21]): ≥ 100 mg/kg/day
LEL (rat [3]; [22]): 3 mg/kg/day
NEL (rat [3]; [22]): < 3 mg/kg/day
LEL (primate [4]): 8 mg/kg/day
LOAEL (primate [4]): > 8 mg/kg/day
NEL (primate [4]): < 8 mg/kg/day
NOAEL (primate [4]): ≥ 8 mg/kg/day
LEL (rat [5]; [23]): 2 mg/kg/day
NEL (rat [5]; [23]): < 2 mg/kg/day
LOAEL (rat [5]; [24]): > 8 mg/kg/day
NOAEL (rat [5]; [24]): ≥ 8 mg/kg/day

CNC(=O)[C@H]1O[C@@H](n2cnc3c(NCc4cc(Cl)ccc4OCc4cc(C)no4)ncnc32)[C@H](O)[C@@H]1N
LEL (dog [6]; [25]): 3 mg/kg/day
NEL (dog [6]; [25]): < 3 mg/kg/day
LOAEL (dog [6]; [26]): > 30 mg/kg/day
NOAEL (dog [6]; [26]): ≥ 30 mg/kg/day
LEL (primate [7]): 40 mg/kg/day
LOAEL (primate [7]): > 40 mg/kg/day
NEL (primate [7]): 15 mg/kg/day
NOAEL (primate [7]): ≥ 40 mg/kg/day
LEL (rat [8]): 5 mg/kg/day
LOAEL (rat [8]): > 5 mg/kg/day
NEL (rat [8]): < 5 mg/kg/day
NOAEL (rat [8]): ≥ 5 mg/kg/day
LEL (rat [9]): 5 mg/kg/day
LOAEL (rat [9]): > 150 mg/kg/day
NEL (rat [9]): < 5 mg/kg/day
NOAEL (rat [9]): ≥ 150 mg/kg/day

NC(=O)Cn1c(=O)cc(CCN2CCN(c3nccc4sccc34)CC2)c2ccc(F)cc21 [Trelanserin]
LOAEL (dog [10]; [27]): > 80 mg/kg/day
NOAEL (dog [10]; [27]): ≥ 80 mg/kg/day
LEL (dog [10]; [28]): 2 mg/kg/day
NEL (dog [10]; [28]): < 2 mg/kg/day
LEL (rat [11]; [29]): 150 mg/kg/day
LOAEL (rat [11]; [29]): > 150 mg/kg/day
NEL (rat [11]; [29]): 20 mg/kg/day
NOAEL (rat [11]; [29]): ≥ 150 mg/kg/day
LOAEL (rat [11]; [30]): > 150 mg/kg/day
NEL (rat [11]; [30]): 4 mg/kg/day
NOAEL (rat [11]; [30]): ≥ 150 mg/kg/day
LEL (rat [11]; group: parental, systemic / in life observation / clinical signs / [other] + systemic / in life observation / clinical signs / drooping eyelids (ptosis) + …): 20 mg/kg/day
LEL (rabbit; [31]): 10 mg/kg/day
LOAEL (rabbit; [31]): > 30 mg/kg/day
NEL (rabbit; [31]): 5 mg/kg/day
NOAEL (rabbit; [31]): ≥ 30 mg/kg/day
LEL (rabbit; group: maternal, reproductive / reproductive performance / postimplantation loss / postimplantation loss): 5 mg/kg/day
NEL (rabbit; group: maternal, reproductive / reproductive performance / postimplantation loss / postimplantation loss + systemic / in life observation / body weight / …): 2 mg/kg/day
LOAEL (rabbit; [32]): > 30 mg/kg/day
NOAEL (rabbit; [32]): ≥ 30 mg/kg/day
LOAEL (dog [12]; [33]): > 100 mg/kg/day
NOAEL (dog [12]; [33]): ≥ 100 mg/kg/day
LEL (dog [12]; [34]): 4 mg/kg/day
NEL (dog [12]; [34]): < 4 mg/kg/day
LEL (rat [13]; [35]): 4 mg/kg/day
NEL (rat [13]; [35]): < 4 mg/kg/day
LOAEL (rat [13]; [36]): > 20 mg/kg/day
NOAEL (rat [13]; [36]): ≥ 20 mg/kg/day
LEL (rat [13]; [37]): 10 mg/kg/day
LOAEL (rat [13]; [37]): > 20 mg/kg/day
NEL (rat [13]; [37]): 4 mg/kg/day
NOAEL (rat [13]; [37]): ≥ 20 mg/kg/day
LEL (rat [14]; [38]): 80 mg/kg/day
LOAEL (rat [14]; [38]): > 80 mg/kg/day
NEL (rat [14]; [38]): < 80 mg/kg/day
NOAEL (rat [14]; [38]): ≥ 80 mg/kg/day
LEL (rat [14]; [39]): 80 mg/kg/day
LOAEL (rat [14]; [39]): > 80 mg/kg/day
NEL (rat [14]; [39]): < 80 mg/kg/day
NOAEL (rat [14]; [39]): ≥ 80 mg/kg/day
LOAEL (rat [15]; [40]): > 20 mg/kg/day
NOAEL (rat [15]; [40]): ≥ 20 mg/kg/day
LEL (rat [15]; [41]): 5 mg/kg/day
NEL (rat [15]; [41]): < 5 mg/kg/day
LEL (mouse): 62.5 mg/kg/day
LOAEL (mouse): 250 mg/kg/day
NEL (mouse): < 62.5 mg/kg/day
NOAEL (mouse): 125 mg/kg/day
LEL (dog [16]; [42]): 1 mg/kg/day
NEL (dog [16]; [42]): < 1 mg/kg/day
LOAEL (dog [16]; [43]): > 16 mg/kg/day
NOAEL (dog [16]; [43]): ≥ 16 mg/kg/day
LOAEL (rat [17]; [44]): > 100 mg/kg/day
NOAEL (rat [17]; [44]): ≥ 100 mg/kg/day
LEL (rat [17]; [45]): 4 mg/kg/day
NEL (rat [17]; [45]): < 4 mg/kg/day
LEL (rat [18]): 4 mg/kg/day
LOAEL (rat [18]): 20 mg/kg/day
NEL (rat [18]): < 4 mg/kg/day
NOAEL (rat [18]): 4 mg/kg/day
LOAEL (rat [19]; [46]): 20 mg/kg/day
NOAEL (rat [19]; [46]): 2 mg/kg/day
LEL (rat [19]; [47]): 2 mg/kg/day
NEL (rat [19]; [47]): < 2 mg/kg/day
LOAEL (rat [20]; [48]): > 20 mg/kg/day
NEL (rat [20]; [48]): 1 mg/kg/day
NOAEL (rat [20]; [48]): ≥ 20 mg/kg/day
LEL (rat [20]; systemic / in life observation / clinical signs / drooping eyelids (ptosis) + systemic / in life observation / clinical signs / red or …): 5 mg/kg/day
